The values that follow come from ChEMBL document CHEMBL1135887, “Substituted pentacyclic carbazolones as novel muscarinic allosteric agents: synthesis and structure-affinity and cooperativity relationships” (J Med Chem, 2002).

In assay [1] the target is T1, Muscarinic acetylcholine receptor M4 (Homo sapiens) (UniProt P08173).
T1 sequence (whole entry): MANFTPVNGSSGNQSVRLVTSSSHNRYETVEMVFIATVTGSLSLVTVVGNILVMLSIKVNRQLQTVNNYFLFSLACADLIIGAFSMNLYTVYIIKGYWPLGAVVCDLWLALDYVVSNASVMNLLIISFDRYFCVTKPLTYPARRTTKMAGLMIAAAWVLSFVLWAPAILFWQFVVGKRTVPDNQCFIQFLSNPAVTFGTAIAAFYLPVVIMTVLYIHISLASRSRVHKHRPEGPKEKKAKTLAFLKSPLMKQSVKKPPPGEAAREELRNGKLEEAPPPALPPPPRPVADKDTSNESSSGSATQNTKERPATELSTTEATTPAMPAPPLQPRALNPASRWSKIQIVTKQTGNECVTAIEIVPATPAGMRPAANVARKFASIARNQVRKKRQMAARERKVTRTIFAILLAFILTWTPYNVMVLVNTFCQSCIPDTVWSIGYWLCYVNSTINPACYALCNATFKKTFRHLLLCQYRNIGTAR
In words: Logarithm of affinity (log 1/M) at the (N-methyl Scopolamine) NMS-liganded muscarinic acetylcholine receptor M4 by using semiquantitative equilibrium and off-rate assay.

For assay [2], the target named is T2, Muscarinic acetylcholine receptor M1 (Homo sapiens) (UniProt P11229).
T2 sequence (whole entry): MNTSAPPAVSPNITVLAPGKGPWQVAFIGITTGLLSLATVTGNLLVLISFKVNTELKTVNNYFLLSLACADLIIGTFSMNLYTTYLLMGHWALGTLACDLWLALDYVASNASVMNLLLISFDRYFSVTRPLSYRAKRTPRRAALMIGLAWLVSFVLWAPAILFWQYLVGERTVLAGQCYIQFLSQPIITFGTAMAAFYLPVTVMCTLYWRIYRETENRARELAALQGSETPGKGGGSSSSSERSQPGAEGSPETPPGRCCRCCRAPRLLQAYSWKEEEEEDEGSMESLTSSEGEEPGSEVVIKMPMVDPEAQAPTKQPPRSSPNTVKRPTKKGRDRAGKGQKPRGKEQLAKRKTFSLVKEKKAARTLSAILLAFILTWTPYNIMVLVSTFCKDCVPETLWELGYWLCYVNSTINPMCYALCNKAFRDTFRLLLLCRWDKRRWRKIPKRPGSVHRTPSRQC
In words: Logarithm of affinity (log 1/M) at the (N-methyl Scopolamine) NMS-liganded muscarinic acetylcholine receptor M1 by using semiquantitative equilibrium and off-rate assay.

The target of assay [3] is Muscarinic acetylcholine receptor M3 (Homo sapiens) (UniProt P20309). In words: Logarithm of affinity (log 1/M) at the muscarinic acetylcholine receptor M3 by using semiquantitative equilibrium and off-rate assay.
For assay [4] the target is unchanged. Nature of the assay: Logarithm of affinity (log 1/M) at the (N-methyl Scopolamine) NMS-liganded muscarinic acetylcholine receptor M3 by using semiquantitative equilibrium and off-rate assay.
Assay [5] addresses T1, Muscarinic acetylcholine receptor M4 (Homo sapiens). Nature of the assay: Subtype selectivity and cooperativity with N-methyl Scopolamine (NMS) at Muscarinic acetylcholine receptor M4; Activity range is 1.2-3.
For assay [6], the target named is T2, Muscarinic acetylcholine receptor M1 (Homo sapiens). Nature of the assay: Subtype selectivity and the cooperativity with N-methyl Scopolamine (NMS) at Muscarinic acetylcholine receptor M1; Activity range is 0.2-0.8.
Assay [7] has as its target Muscarinic acetylcholine receptor M3 (Homo sapiens) (UniProt P20309). In words: Subtype selectivity and the cooperativity with N-methyl Scopolamine (NMS) at Muscarinic acetylcholine receptor M3; […].
The target of assay [8] is T3, Muscarinic acetylcholine receptor M2 (Homo sapiens) (UniProt P08172).
T3 sequence (whole entry): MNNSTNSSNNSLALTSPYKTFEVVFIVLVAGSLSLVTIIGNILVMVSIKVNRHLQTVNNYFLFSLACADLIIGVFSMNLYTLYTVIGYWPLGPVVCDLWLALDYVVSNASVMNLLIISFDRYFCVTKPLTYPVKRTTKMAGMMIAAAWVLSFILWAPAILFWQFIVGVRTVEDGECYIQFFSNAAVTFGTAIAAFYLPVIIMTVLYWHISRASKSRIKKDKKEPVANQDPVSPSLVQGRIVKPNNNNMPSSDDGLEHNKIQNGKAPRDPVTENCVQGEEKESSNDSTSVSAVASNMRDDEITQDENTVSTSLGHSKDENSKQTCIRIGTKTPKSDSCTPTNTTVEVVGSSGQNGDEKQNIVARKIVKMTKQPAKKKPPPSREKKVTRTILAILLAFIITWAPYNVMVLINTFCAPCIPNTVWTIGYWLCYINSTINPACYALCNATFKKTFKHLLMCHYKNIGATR
In words: Subtype selectivity and the cooperativity with N-methyl Scopolamine (NMS) at Muscarinic acetylcholine receptor M2; Activity range is 1.2-3.

Assay [9] has as its target T2, Muscarinic acetylcholine receptor M1 (Homo sapiens). Nature of the assay: Logarithm of affinity (log 1/M) at the free muscarinic acetylcholine receptor M1 by using semiquantitative equilibrium and off-rate assay.
The target of assay [10] is T3, Muscarinic acetylcholine receptor M2 (Homo sapiens). In words: Logarithm of affinity (log 1/M) at the muscarinic acetylcholine receptor M2 by using semiquantitative equilibrium and off-rate assay.
Assay [11] deals with T1, Muscarinic acetylcholine receptor M4 (Homo sapiens). Nature of the assay: Logarithm of affinity (log 1/M) at the muscarinic acetylcholine receptor M4 by using semiquantitative equilibrium and off-rate assay.
In assay [12] the target is T3, Muscarinic acetylcholine receptor M2 (Homo sapiens). In words: Logarithm of affinity (log 1/M) at the (N-methyl Scopolamine) NMS-liganded muscarinic acetylcholine receptor M2 by using semiquantitative equilibrium and off-rate assay.
Assay [13] addresses Muscarinic acetylcholine receptor M3 (Homo sapiens) (UniProt P20309). In words: Subtype selectivity and the cooperativity with N-methyl Scopolamine (NMS) at muscarinic acetylcholine receptor M3; Activity range is 0.2-0.8.
The target of assay [14] is T1, Muscarinic acetylcholine receptor M4 (Homo sapiens). Nature of the assay: Subtype selectivity and the cooperativity with N-methyl Scopolamine (NMS) at Muscarinic acetylcholine receptor M4; Activity range is 0.2-0.8.
Assay [15] addresses T2, Muscarinic acetylcholine receptor M1 (Homo sapiens). In words: Subtype selectivity and the cooperativity with N-methyl Scopolamine (NMS) at Muscarinic acetylcholine receptor M1; Activity range is 1.2-3.
The target of assay [16] is T1, Muscarinic acetylcholine receptor M4 (Homo sapiens). In words: Subtype selectivity and the cooperativity with N-methyl Scopolamine (NMS) at Muscarinic acetylcholine receptor M4; Activity range is 0.81-1.19.
In assay [17] the target is T3, Muscarinic acetylcholine receptor M2 (Homo sapiens). Nature of the assay: Subtype selectivity and the cooperativity with N-methyl Scopolamine (NMS) at Muscarinic acetylcholine receptor M2.
The target of assay [18] is T1, Muscarinic acetylcholine receptor M4 (Homo sapiens). Nature of the assay: Subtype selectivity and the cooperativity with N-methyl Scopolamine (NMS) at Muscarinic acetylcholine receptor M4.

Chain of Muscarinic acetylcholine receptor M3 (Homo sapiens) (P20309 whole entry, looked up): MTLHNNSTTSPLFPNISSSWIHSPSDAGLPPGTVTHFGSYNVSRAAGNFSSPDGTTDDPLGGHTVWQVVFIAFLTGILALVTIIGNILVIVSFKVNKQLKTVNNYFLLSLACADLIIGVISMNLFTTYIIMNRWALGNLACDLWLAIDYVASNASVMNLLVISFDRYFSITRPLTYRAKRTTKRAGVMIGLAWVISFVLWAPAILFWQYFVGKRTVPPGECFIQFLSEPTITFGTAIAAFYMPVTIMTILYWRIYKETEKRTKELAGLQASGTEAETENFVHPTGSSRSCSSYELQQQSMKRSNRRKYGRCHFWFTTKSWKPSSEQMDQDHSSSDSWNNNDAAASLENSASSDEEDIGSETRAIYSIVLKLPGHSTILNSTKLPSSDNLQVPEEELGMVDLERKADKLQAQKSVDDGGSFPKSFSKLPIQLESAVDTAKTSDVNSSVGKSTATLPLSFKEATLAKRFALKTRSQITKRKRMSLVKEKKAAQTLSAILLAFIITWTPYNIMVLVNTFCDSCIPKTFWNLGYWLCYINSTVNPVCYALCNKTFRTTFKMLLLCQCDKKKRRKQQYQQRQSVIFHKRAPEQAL

On to `O=C1CCc2cc3c(c4c5ccc(O)cc5n1c24)CCNC3`, for which the Log 1/M in [1] was 5.36; in [2] it was 5.62; in assay [3], 5.23; in [4], 5.29; in assay [9], 6.01; in assay [10], 5.24. Also, the Log 1/M is 5.38 in assay [11] and 5.34 in assay [12]. Also, the Cooperativity was 3 in assay [5], 0.8 in [6], 1.19 in assay [7] and 3 in assay [8].

Regarding `COc1cccc2c3c4c(cc5c3n(c12)C(=O)CC5)CNCC4`, the Log 1/M is 5.11 in assay [1]; 5.07 in [2]; 5.06 in assay [3]; 4.75 in assay [4]; 5.4 in assay [9]; 5.19 in [10]. Moreover, the Log 1/M turned out to be 5.97 in assay [11] and 5.55 in assay [12]. Moreover, the Cooperativity is 3 in assay [5], 0.8 in [6], 3 in assay [8] and 0.8 in [13].

On to `COC(=O)c1cccc2c1c1c3c(cc4c1n2C(=O)CC4)CNCC3`, for which the Log 1/M in [1] is 5.58; in assay [2], 5.34; in assay [3] it was 4.98; in [4], 4.78; in assay [9], 5.47; in assay [10], 5.5. Besides, the Log 1/M in [11] worked out at 5.6; in assay [12], 5.82. Besides, the Cooperativity was determined as 0.8 in assay [6], 3 in [8], 0.8 in assay [14] and 0.8 in assay [13].

As to `O=C1CCc2cc3c(c4c5cccc(O)c5n1c24)CCNC3`, the Log 1/M in assay [1] turned out to be 5.25; in assay [2], 5.38; in assay [3], 5.06; in assay [4], 4.37; in [9], 5.49; in [10], 5.36. Also, the Log 1/M in assay [11] amounted to 5.43; in assay [12], 5.67. Further, the Cooperativity is 0.8 in assay [6], 3 in assay [8], 0.8 in assay [14] and 0.8 in [13].

For the compound `O=C1CCc2cc3c(c4c5ccccc5n1c24)CCNC3`, the Log 1/M in [1] turned out to be 5.37; in assay [2], 5.49; in assay [3], 4.88; in assay [4], 4.64; in assay [9], 5.49; in assay [10], 5.31. Further, the Log 1/M in [11] is 4.99; in assay [12] it was 5.49. Further, the Cooperativity in assay [5] came to 3; in assay [15], 3; in assay [8], 3; in [13], 0.8.

For `O=C1CCc2cc3c(c4c5cc(CN6CCOCC6)ccc5n1c24)CCNC3`, the Log 1/M in assay [1] is 5.35; in assay [2], 5.35; in [3], 4.56; in [4], 3.93; in [9], 5.47; in assay [10], 5.53. Moreover, the figures for the Log 1/M in assay [11] and in assay [12] were 6.12 and 5.79, respectively. For the same compound, the Cooperativity in assay [16] worked out at 1.19; in assay [6] it was 0.8; in assay [8], 3; in assay [13] it was 0.8.

`COc1cccc2c1c1c3c(cc4c1n2C(=O)CC4(C)C)CNCC3`: the Log 1/M in assay [1] was 5.79; in assay [2], 5.54; in assay [3] it was 4.92; in assay [4] it was 4.83; in [9], 6.65; in assay [10], 6.21. For the same compound, the Log 1/M in [11] was 5.94; in assay [12], 6.16. In addition, the Cooperativity in [16] came to 1.19; in [6] it was 0.8; in assay [8], 3; in assay [13] it was 0.8.

In the case of `O=C1CCc2cc3c(c4c5ccccc5n1c24)CNCC3`, the Log 1/M came out at 5.48 in assay [1]; 5.7 in [2]; 5.78 in assay [3]; 4.69 in assay [4]; 5.85 in assay [9]; 5.51 in assay [10]. The Log 1/M was found to be 5.31 in [11] and 5.57 in assay [12]. For the same compound, the Cooperativity in [5] was 3; in assay [6], 0.8; in assay [8], 3; in assay [13], 0.8.

Take `COC(=O)c1c2c(c3c4cc(OC)c(OC)cc4n4c3c1CCC4=O)CCNC2`: the Log 1/M in assay [1] came out at 5.96; in [2], 6.05; in [3], 5.11; in [4], 4.9; in assay [9], 5.97; in assay [10], 6.22. Besides, the values for the Log 1/M in assay [11] and in assay [12] were 5.86 and 6.37, respectively. For the same compound, the Cooperativity is 3 in [5], 0.8 in [6], 3 in assay [8] and 0.8 in assay [13].

On to `Cc1ccc2c(c1)c1c3c(cc4c1n2C(=O)CC4)CNCC3`, for which the Log 1/M in assay [1] stood at 5.97; in assay [2], 5.69; in [3], 5.71; in assay [4], 5.08; in [9], 5.9; in [10], 6.09. Further, the figures for the Log 1/M in [11] and in assay [12] were 6.26 and 6.47, respectively. Besides, the Cooperativity was determined as 3 in assay [5], 0.8 in assay [6], 3 in assay [8] and 0.8 in assay [13].

In the case of `O=C(O)c1ccc2c(c1)c1c3c(cc4c1n2C(=O)CC4)CNCC3`, the Log 1/M in [1] came out at 5.32; in assay [2], 4.57; in [3] it was 4.51; in assay [4], 3.94; in assay [9] it was 5.43; in assay [10], 5.31. In addition, the Log 1/M in assay [11] stood at 5.39; in assay [12], 5.6. The Cooperativity in [17] was over 3; in assay [6] it was 0.8; in assay [18] it was over 3; in assay [13], 0.8.

Regarding `COc1ccc2c(c1)c1c3c(cc4c1n2C(=O)CC4)CNCC3`, the Log 1/M in assay [1] stood at 5.57; in [2], 5.23; in [3] it was 5.04; in [4], 4.54; in [9], 5.78; in assay [10], 5.96. The Log 1/M in assay [11] was 5.6; in assay [12], 6.15. Also, the Cooperativity in assay [16] worked out at 1.19; in assay [6], 0.8; in assay [8], 3; in assay [13], 0.8.
